Experiments:
EGFR^wt = molecular target: T1, EGFR^wt (Homo sapiens, UniProt P00533); assay: kinase inhibitory activity test (ELISA), EGFR^WT; format: biochemical; conditions: ATP 5 μM, 1 hour at 37° C.
T1 construct: purchased Millipore
Protocol: (§1) The enzyme substrate poly (glutamic acid, tyrosine)4:1 (Sigma) was diluted with potassium-free PBS (10 mM sodium phosphate buffer, 150 mM NaCl, pH 7.2-7.4) to 20 μg/mL, plate coated with 125 μL/well, reacted for 12-16 hours at 37° C. After the liquid in the wells was discarded, the plates were washed three times with 200 μL/well of T-PBS (PBS containing 0.1% Tween-20), and each time for 5 minutes, and then dried for 1-2 hours in an oven at 37° C. 50 μL of ATP solution diluted with reaction buffer (50 mM HEPES pH 7.4, 50 mM MgCl2, 5 mM MnCl2, 0.2 mM Na3VO4, 1 mM DTT) was added into each well and the final concentration was 5 μM. The compounds were diluted with 1% DMSO to suitable concentrations and were added at 10 μL/well. […] The above reaction system was reacted for 1 hour at 37° C. shaking table (100 rpm). Control wells with no enzyme and control wells with DMSO solvent were set in each experiment. After the reaction was completed, the plates were washed three times with T-PBS. The anti-phosphotyrosine primary antibody PY99 (Santa Cruz) was added at 100 μL/well and the antibody was diluted with T-PBS containing BSA 5 mg/mL by 1:1000. The mixture was reacted for 0.5 h at 37° C. shaking table, the plates were washed three times with T-PBS. The secondary antibody which was horseradish peroxidase-labeled goat anti-mouse IgG was added at 100 μL/well (the antibody was diluted with T-PBS containing BSA 5 mg/mL by 1:2000). The mixture was reacted for 0.5 h at 37° C. shaking table, the plates were washed three times with T-PBS. 2 l/mL of OPD coloring solution was added at 100 μL/well (diluted with 0.1 M citric acid-sodium citrate buffer (pH=5.4) containing 0.03% H2O2) and dark reacted for 1 to 10 minutes at 25° C. 2 M H2SO4 was added at 50 μL/well to terminate the reaction. Reading was carried out with an adjustable wavelength microplate enzyme-labeled instrument SPECTRA MAX 190 at 490 nm wavelength.
(§2) The IC50 value was calculated by the four-parameter fitting of the suppression curve.

EGFR^T790M/L858R = molecular target: T2, EGFR^T790M/L858R (Homo sapiens, UniProt P00533, L858R/T790M); assay: kinase inhibitory activity test (ELISA), EGFR^T790M/L858R; format: biochemical; conditions: for IC50: ELISA, ATP 5 μM, 1 hour at 37° C.; for kinase inhibitory activity (in words): summary of Table 1
T2 construct: purchased Millipore
T2 sequence (P00533 25-1210 T790M/L858R): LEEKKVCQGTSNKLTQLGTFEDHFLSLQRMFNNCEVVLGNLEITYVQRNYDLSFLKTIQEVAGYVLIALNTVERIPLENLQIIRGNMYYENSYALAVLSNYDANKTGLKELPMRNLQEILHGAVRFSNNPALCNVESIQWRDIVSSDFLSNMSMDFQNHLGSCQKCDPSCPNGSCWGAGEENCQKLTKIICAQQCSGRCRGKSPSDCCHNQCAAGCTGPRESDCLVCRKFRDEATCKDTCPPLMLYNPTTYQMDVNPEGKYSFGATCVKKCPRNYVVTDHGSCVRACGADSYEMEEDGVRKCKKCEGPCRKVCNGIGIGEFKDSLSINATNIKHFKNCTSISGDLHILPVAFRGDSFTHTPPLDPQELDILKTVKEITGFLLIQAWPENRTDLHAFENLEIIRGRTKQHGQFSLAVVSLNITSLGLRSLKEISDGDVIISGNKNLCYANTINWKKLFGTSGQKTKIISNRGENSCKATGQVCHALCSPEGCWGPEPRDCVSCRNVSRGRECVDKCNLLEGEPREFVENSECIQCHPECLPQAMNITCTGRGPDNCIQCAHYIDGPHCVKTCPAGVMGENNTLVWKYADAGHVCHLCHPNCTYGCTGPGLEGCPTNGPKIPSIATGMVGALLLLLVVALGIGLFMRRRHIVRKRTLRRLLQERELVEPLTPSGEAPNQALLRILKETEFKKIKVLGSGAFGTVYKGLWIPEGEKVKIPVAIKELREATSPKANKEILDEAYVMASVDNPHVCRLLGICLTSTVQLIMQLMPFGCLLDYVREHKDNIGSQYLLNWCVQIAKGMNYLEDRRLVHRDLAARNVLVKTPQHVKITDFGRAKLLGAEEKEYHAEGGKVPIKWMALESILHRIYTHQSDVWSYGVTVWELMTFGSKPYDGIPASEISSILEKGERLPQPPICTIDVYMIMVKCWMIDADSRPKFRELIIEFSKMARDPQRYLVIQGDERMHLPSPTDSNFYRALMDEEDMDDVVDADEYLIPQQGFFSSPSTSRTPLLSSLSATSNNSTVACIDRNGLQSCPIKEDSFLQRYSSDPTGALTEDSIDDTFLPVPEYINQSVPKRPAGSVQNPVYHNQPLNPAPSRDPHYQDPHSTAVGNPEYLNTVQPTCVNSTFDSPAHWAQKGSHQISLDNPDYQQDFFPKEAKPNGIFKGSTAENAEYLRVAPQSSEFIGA
Protocol: as §1, §2

IGF-1R = molecular target: T3, IGF-1R (Homo sapiens, UniProt P08069); assay: kinase inhibitory activity test (ELISA), IGF-1R; format: biochemical; conditions: ATP 5 μM, 1 hour at 37° C.
T3 construct: purchased Millipore
T3 sequence (P08069 31-1367): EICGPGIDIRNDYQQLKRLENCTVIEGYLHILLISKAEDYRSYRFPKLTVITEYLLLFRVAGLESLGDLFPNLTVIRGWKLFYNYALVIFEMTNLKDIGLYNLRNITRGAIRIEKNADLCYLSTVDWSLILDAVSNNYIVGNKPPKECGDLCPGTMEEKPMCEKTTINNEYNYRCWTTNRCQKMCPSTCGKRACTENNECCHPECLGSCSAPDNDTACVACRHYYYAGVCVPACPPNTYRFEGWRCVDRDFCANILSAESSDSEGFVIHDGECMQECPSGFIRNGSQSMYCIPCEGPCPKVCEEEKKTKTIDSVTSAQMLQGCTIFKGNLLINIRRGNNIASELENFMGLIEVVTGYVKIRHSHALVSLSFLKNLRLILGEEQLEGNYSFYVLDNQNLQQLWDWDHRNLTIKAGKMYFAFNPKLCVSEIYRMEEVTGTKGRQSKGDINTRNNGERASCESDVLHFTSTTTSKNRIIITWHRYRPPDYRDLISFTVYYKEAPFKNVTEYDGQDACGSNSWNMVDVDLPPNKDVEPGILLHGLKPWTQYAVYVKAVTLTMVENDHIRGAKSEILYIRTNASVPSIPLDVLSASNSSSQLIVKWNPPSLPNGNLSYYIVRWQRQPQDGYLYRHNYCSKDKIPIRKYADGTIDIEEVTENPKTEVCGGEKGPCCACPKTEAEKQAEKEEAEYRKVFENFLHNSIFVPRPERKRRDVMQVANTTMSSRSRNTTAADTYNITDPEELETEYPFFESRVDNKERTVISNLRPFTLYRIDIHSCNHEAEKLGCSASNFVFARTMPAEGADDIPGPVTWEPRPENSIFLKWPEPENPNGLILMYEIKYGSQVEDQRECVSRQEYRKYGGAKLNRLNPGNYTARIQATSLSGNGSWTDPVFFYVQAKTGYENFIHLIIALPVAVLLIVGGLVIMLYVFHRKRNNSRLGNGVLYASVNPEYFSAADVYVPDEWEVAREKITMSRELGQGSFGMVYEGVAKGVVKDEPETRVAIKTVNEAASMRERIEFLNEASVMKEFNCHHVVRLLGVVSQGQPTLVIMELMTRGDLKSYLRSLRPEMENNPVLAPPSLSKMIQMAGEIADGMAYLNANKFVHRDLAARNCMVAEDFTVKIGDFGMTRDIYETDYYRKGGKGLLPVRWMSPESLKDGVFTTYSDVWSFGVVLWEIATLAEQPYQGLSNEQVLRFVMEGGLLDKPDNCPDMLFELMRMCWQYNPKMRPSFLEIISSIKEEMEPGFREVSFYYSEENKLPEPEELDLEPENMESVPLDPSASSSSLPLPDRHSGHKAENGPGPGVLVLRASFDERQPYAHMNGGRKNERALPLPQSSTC
Protocol: The enzyme substrate poly (glutamic acid, tyrosine)4:1 (Sigma) was diluted with potassium-free PBS (10 mM sodium phosphate buffer, 150 mM NaCl, pH 7.2-7.4) to 20 μg/mL, plate coated with 125 μL/well, reacted for 12-16 hours at 37° C. After the liquid in the wells was discarded, the plates were washed three times with 200 μL/well of T-PBS (PBS containing 0.1% Tween-20), and each time for 5 minutes, and then dried for 1-2 hours in an oven at 37° C. 50 μL of ATP solution diluted with reaction buffer (50 mM HEPES pH 7.4, 50 mM MgCl2, 5 mM MnCl2, 0.2 mM Na3VO4, 1 mM DTT) was added into each well and the final concentration was 5 μM. The compounds were diluted with 1% DMSO to suitable concentrations and were added at 10 μL/well. Then different types of tyrosine kinase proteins (including EGFR^wt, EGFR^T790M/L858R and IGF-1R, purchased from Millipore) diluted with 40 μL of reaction buffer were added. The above reaction system was reacted for 1 hour at 37° C. shaking table (100 rpm). Control wells with no enzyme and control wells with DMSO solvent were set in each experiment. After the reaction was completed, the plates were washed three times with T-PBS. The anti-phosphotyrosine primary antibody PY99 (Santa Cruz) was added at 100 μL/well and the antibody was diluted with T-PBS containing BSA 5 mg/mL by 1:1000. The mixture was reacted for 0.5 h at 37° C. shaking table, the plates were washed three times with T-PBS. The secondary antibody which was horseradish peroxidase-labeled goat anti-mouse IgG was added at 100 μL/well (the antibody was diluted with T-PBS containing BSA 5 mg/mL by 1:2000). The mixture was reacted for 0.5 h at 37° C. shaking table, the plates were washed three times with T-PBS. 2 l/mL of OPD coloring solution was added at 100 μL/well (diluted with 0.1 M citric acid-sodium citrate buffer (pH=5.4) containing 0.03% H2O2) and dark reacted for 1 to 10 minutes at 25° C. 2 M H2SO4 was added at 50 μL/well to terminate the reaction. Reading was carried out with an adjustable wavelength microplate enzyme-labeled instrument SPECTRA MAX 190 at 490 nm wavelength.
as §2

[1] = test system: human epidermal carcinoma A431 cell line; assay: SRB proliferation assay, A431 cells; format: cell-based; conditions: A-431, SRB, 72 h, read-out: IC50 A431
Protocol: (§3) Cell lines: human epidermal carcinoma A431 cell line and human non-small cell lung cancer NCI-H1975 cell line was purchased from the American Standard Biology Collection Center (ATCC).
(§4) Methods: sulforhodamine B (SRB) method, which was as follows: certain number of different tumor cells in logarithmic growth phase were inoculated on 96-well culture plates. After cultured for 24 h to cell adherence, different concentrations of the test compounds of the invention were added. Each concentration was provided with three wells, and a corresponding concentration of DMSO solvent control and a cell-free zeroing well were set. After the cells were treated with the medicine for 72 h, the culture medium was discarded and 100 μL of 10% pre-cooled trichloroacetic acid solution was added to fix the cells. After placed for 1 h at 4° C., it was washed for 5 times with distilled water and dried naturally. Then 100 μL SRB (4 mg/mL) (Sigma) solution was added and stained for 15 min at room temperature. The staining solution was discarded and washed for 5 times with 1% glacial acetic acid and dried. Finally, 150 μL of 10 mM Tris solution (pH 10.5) was added and the OD value was measured at 515 nm with adjustable wavelength microplate enzyme-labeled instrument (VERSAmax™, Molecular Device Corporation, Sunnyvale, Calif., USA).

[2] = test system: human non-small cell lung cancer NCI-H1975 cell line; assay: SRB proliferation assay, NCI-H1975 cells; format: cell-based; conditions: NCI-H1975, SRB, 72 h, read-out: IC50 NCI-H1975
Protocol: as §3
as §4, with “USA). […] Based on the inhibitory effect of the 2-aminopyrimidine compounds on the growth of these cells, the half maximal inhibitory concentration (IC50) values were calculated, as shown in Table 2.” for “USA).”

T1 sequence (P00533 25-1210): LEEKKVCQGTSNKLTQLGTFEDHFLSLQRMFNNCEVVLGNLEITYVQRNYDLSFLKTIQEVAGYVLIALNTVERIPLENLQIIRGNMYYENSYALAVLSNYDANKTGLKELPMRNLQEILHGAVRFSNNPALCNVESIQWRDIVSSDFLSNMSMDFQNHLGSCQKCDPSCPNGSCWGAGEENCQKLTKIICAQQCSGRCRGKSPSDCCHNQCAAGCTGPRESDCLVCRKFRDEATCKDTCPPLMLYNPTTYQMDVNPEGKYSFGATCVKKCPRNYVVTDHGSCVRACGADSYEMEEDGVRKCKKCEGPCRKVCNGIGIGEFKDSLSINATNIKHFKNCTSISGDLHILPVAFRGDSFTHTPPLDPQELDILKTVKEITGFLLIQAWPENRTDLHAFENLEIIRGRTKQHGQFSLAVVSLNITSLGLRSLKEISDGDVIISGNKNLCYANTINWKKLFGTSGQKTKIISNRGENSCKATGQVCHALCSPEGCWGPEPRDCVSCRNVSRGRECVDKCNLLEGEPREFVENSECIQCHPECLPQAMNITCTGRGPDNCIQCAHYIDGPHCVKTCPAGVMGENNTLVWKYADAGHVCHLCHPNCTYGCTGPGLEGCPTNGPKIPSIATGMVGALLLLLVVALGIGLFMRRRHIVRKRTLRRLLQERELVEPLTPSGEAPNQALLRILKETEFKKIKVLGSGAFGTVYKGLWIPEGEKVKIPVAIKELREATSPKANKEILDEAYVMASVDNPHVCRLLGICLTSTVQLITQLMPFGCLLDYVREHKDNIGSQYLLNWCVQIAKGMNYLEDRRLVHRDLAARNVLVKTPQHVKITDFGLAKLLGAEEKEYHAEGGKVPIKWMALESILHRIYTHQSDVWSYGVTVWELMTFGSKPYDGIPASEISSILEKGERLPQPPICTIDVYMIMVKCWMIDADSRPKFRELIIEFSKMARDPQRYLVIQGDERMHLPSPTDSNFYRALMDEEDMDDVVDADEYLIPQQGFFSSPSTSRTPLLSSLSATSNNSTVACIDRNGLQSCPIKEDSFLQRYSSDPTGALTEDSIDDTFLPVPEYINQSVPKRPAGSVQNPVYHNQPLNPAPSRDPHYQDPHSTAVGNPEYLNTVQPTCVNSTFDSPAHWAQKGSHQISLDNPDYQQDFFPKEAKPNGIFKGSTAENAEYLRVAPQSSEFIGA

| IC50 (EGFR^wt) | IC50 (EGFR^T790M/L858R) | IC50 (IGF-1R) | IC50 [1] | IC50 [2] | kinase inhibitory activity (in words) (EGFR^T790M/L858R) | Structure (SMILES) |
| --- | --- | --- | --- | --- | --- | --- |
| > 100 nM | 21.5 nM | 19.8 nM | 1100 nM | 51 nM |  | C=CC(=O)Nc1cc(Nc2ncc(Cl)c(Nc3ccc4ccccc4c3)n2)c(OC)cc1N1CCN(C(C)=O)CC1 [CCB120111, N-((5-((5-chloro-4-((naphthalen-2-yl)amino))pyrimidin-2-yl)amino)-2-(4-acetylpiperazine)-4-methoxyphenyl)acrylamide] |
| 40.3 nM | 1.6 nM | 28.5 nM | 2590 nM | 16 nM | potent | C=CC(=O)Nc1cc(Nc2ncc(Cl)c(Nc3ccc4ccccc4c3)n2)c(OC)cc1N1CCN(C)CC1 [CCB120115, N-((5-((5-chloro-4-((naphthalen-2-yl)amino))pyrimidin-2-yl)amino)-2-(4-methylpiperazine)-4-methoxyphenyl)acrylamide] |
| > 100 nM | 9.4 nM | 18.7 nM | > 10000 nM | 272 nM |  | C=CC(=O)Nc1cc(Nc2ncc(Cl)c(Nc3ccc4ccccc4c3)n2)c(OC)cc1N1CCOCC1 [CCB120117, N-((5-((5-chloro-4-((naphthalen-2-yl)amino))pyrimidin-2-yl)amino)-2-morpholinyl-4-methoxyphenyl)acrylamide] |
| 31.7 nM | 0.6 nM | 18.3 nM | 260 nM | 1 to 16 nM | potent | C=CC(=O)Nc1cc(Nc2ncc(Cl)c(Nc3ccc4ccccc4c3)n2)c(OC)cc1N1CCCN(C)CC1 [CCB120120, N-((5-((5-chloro-4-((naphthalen-2-yl)amino))pyrimidin-2-yl)amino)-2-(4-methylhomopiperazinyl)-4-methoxyphenyl)acrylamide] |
| > 100 nM | 1.3 nM | 13.7 nM | 324 nM | 4 nM |  | C=CC(=O)Nc1cc(Nc2ncc(Cl)c(Nc3ccc4ccccc4c3)n2)c(OC)cc1N1CCC(N(C)C)CC1 [CCB120121, N-((5-((5 chloro-4-((naphthalen-2-yl)amino))pyrimidin-2-yl)amino)-2-(4-dimethylaminopiperidine)-4-methoxyphenyl)acrylamide] |
| 16.8 nM | 0.3 nM | 56.4 nM | 425 nM | 167 nM | potent | C=CC(=O)Nc1cc(Nc2ncc(Cl)c(Nc3ccc4ccccc4c3)n2)c(OC)cc1N1CCC(N(C)C)C1 (stereo not drawn) [CCB120137, N-((5-((5-chloro-4-((naphthalen-2-yl)amino))pyrimidin-2-yl)amino)-2-(3-dimethylaminopyrrolidin-1-yl)-4-methoxyphenyl)acrylamide] |
| 4.3 nM | 0.6 nM | 426 nM | 912 nM | 164 nM |  | C=CC(=O)Nc1cc(Nc2ncc(Cl)c(Nc3ccc4ccccc4c3)n2)c(OC)cc1N1CC(N(C)C)C1 [CCB120138, N-((5-((5-chloro-4-((naphthalen-2-yl)amino))pyrimidin-2-yl)amino)-2-(3-dimethylaminoazetidin-1-yl)-4-methoxyphenyl)acrylamide] |
| 615 nM | 43.5 nM | 37.1 nM | 857 nM | 240 nM |  | COc1ccc(NC(=O)/C=C/CN(C)C)cc1Nc1ncc(Cl)c(Nc2ccc3ncccc3c2)n1 [CCB145213, (E)-N-((3-((5-chloro-4-((quinolin-6-yl)amino))pyrimidin-2-yl)amino)-4-methoxyphenyl)-4-(dimethylamino)-2-butenamide] |
| 848 nM | 37.6 nM | 12.5 nM | 646 nM | 170 nM |  | COc1ccc(NC(=O)/C=C/CN(C)C)cc1Nc1ncc(Cl)c(Nc2cnc3ccccc3c2)n1 [CCB145221, (E)-N-((3-((5-chloro-4-((quinolin-3-yl)amino))pyrimidin-2-yl)amino)-4-methoxyphenyl)-4-(dimethylamino)-2-butenamide] |

Reference: patent publication US10059694B2, “2-aminopyrimidine compound and pharmaceutical composition and use thereof” (Shanghai Institute of Materia Medica, Chinese Academy of …, priority 2014, dated 2018)
